Test results taken from US6916906B1, “Polypeptides implicated in the expression of resistance to glycopeptides, in particular in gram-positive bacteria, nucleotide sequence coding for these polypeptides and use for diagnosis” (priority 1990, dated 2005).

What was measured:
E. gallinarum BM4174 = experiment: Minimal inhibitory concentration of vancomycin for BM4174; type: cell-based; settings: Enterococcus gallinarum, read-out: minimal inhibitory concentration
Method: (§1) The cultures were grown in brain-heart broth (BHI—Brain Heart Infusion Broth) or on agar at 37° C. The method of Steers et al (Antibiot. Chemother. Basel. 9: 307-311) was used to determine the minimal inhibitory concentrations (MICs) of the antibiotics on a Mueller-Hinton gelose agar medium.
(§2) In order to evaluate the contribution of vanC to resistance to vancomycin in E. gallinarum BM4174, the vanC gene was inactivated by insertion. […] The resulting pAT217 plasmid was introduced into BM4174 by electroporation (Cruz-Rodz et al., 1990, Mol. Gen. Genet. 224:152-154) and the clones supposed to result from a homologous recombination leading to the integration of pAT217 into vanC were selected on erythromycin. The clone BM4175 was compared with BM4174 by Southern hybridization using the probe C and aphA-3 specific for pAT114. The two probes hybridized with the EcoRI fragment of 8.6 kb from BM4175.

BM4175 = experiment: Minimal inhibitory concentration of vancomycin for BM4175 (vanC inactivated by insertion); type: cell-based; settings: Enterococcus gallinarum; BM4175, pAT217 integrated into vanC
Method: as §1, §2

E. faecalis JH2-2 = experiment: MIC after inactivation of vanS by insertion in plasmid pAT80; type: cell-based, Enterococcus faecalis; settings: inactivation of vanS in pAT80, compared with pAT80
Source text: The restriction fragments of pIP816 (Tra^−, Mob^+, Vm^r) were cloned in derivatives of the vector pAT29 which constitutes a shuttle vector between the Gram-positive and Gram-negative bacteria (oriR pAMβ1, oriR pUC, oriT RK2, spc, lacZ) (Trieu-Cuot et al., 1990, Nucleic Acids Res. 18:4296). This vector was constructed by the inventors and used to transform the strain E. coli JM103 ((lac-proAB), supE, thi, strA, sbcB15, endA, hspR4, F traD36, proAB, LacI^q, lacZ M15) (Messing et al., 1983, Methods Ezymol. 101:20-78). The plasmid DNA was prepared by an alkaline lysis protocol on a small scale (Sambrook et al., 1982, Molecular cloning, a laboratory manual. Cold Spring Harbor Laboratory, Cold Spring Harbor N.Y.) and introduced by electroporation (Cruz-Rodz A. L. et al., 1990, Mol. Gen. Genet. 224: 152-154) in E. faecalis JH2-2 (Fus^R, Rif^R) (Jacob A. E. et al., 1974, J. Bacteriol. 117: 360-372), by using a Gene Pulser apparatus (Bio-Rad Laboratories, Richmond, Calif.). The restriction profiles of the purified plasmids from E. faecalis and E. coli were compared in order to detect possible rearrangements of DNA.
The cultures were grown in brain-heart broth (BHI—Brain Heart Infusion Broth) or on agar at 37° C. […]

[1] = tested on: strain with a high level of resistance, in particular Gram-positive cocci; experiment: MIC towards strains with a high level of resistance; type: cell-based
[2] = tested on: strains with low-level resistance; experiment: MIC towards strains with low-level resistance; type: cell-based

Row | Molecule | MIC (E. gallinarum BM4174) [µg/mL] | MIC (BM4175) [µg/mL] | change of minimal inhibitory concentration (MIC) (E. faecalis JH2-2) | MIC ([1]; read-out: minimal inhibitory concentrations (MIC)) [µg/mL] | sensitivity of the strains [2] | minimal inhibitory concentrations (MIC) ([1]; strains with a high level of resistance (definition)) [µg/mL]
1 | CN[C@H](CC(C)C)C(=O)N[C@H]1C(=O)N[C@@H](CC(N)=O)C(=O)N[C@H]2C(=O)N[C@H]3C(=O)N[C@H](C(=O)N[C@H](C(=O)O)c4cc(O)cc(O)c4-c4cc3ccc4O)[C@H](O)c3ccc(c(Cl)c3)Oc3cc2cc(c3O[C@@H]2O[C@H](CO)[C@@H](O)[C@H](O)[C@H]2O[C@H]2C[C@](C)(N)[C@H](O)[C@H](C)O2)Oc2ccc(cc2Cl)[C@H]1O [vancomycin] | 16 | 2 | remains unchanged | > 32 |  | 
2 | teicoplanin |  |  |  |  | apparently sensitive | > 8
3 | O=C(N[C@H](CO)[C@H](O)c1ccc([N+](=O)[O-])cc1)C(Cl)Cl [chloramphenicol] |  |  | two-fold reduction |  |  | 
